Measured values: paper PMC6158189, “A pharmacological probe identifies cystathionine β-synthase as a new negative regulator for ferroptosis” (Cell Death & Disease, 2018)

How the values were obtained:
[1] = target: T1, hCBS (GST-tagged CBS-413) (Homo sapiens, UniProt P35520); experiment: surface plasmon resonance (BIAcore T200); assay type: binding; conditions: 0.097–12.5 µM injected over hCBS-coated chip; read-out: KD (SPR)
T1 construct: hCBS-413 (a C-terminal truncated hCBS 1–413); made in house; host or cells: E. coli BL21
T1 sequence (P35520 1-413): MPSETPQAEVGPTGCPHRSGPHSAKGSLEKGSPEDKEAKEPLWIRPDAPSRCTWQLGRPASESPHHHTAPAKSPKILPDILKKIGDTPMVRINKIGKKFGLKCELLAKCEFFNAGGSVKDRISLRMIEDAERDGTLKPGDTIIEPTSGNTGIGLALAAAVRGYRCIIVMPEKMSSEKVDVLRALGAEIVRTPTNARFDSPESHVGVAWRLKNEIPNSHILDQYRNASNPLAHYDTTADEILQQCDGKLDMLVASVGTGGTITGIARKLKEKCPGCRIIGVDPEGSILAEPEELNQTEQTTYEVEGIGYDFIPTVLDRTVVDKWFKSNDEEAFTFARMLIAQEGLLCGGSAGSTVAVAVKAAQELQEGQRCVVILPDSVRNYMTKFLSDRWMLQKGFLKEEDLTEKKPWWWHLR
Procedure: Surface Plasmon Resonance assays (SPR) with a BIAcore T200 (GE Healthcare, Uppsala, Sweden) were used to observe the direct interaction between inhibitors and hCBS. The SPR assay was performed in running buffer (1× PBS with 0.05% P20) and the purified GST-tagged CBS-413 (500 μg/mL) was immobilized onto a flow cell of a CM5 sensor chip using a GST antibody coupling kit in running buffer. The KD values were determined with the Biacore evaluation 3.1 software.
Figure S2. The mode of action of CH004 in inhibiting hCBS. […] After incubation with DMSO or CH004 at 10 μM for 40 min, hCBS (20 μM) was diluted 200-fold and the activity was measured according to the standard assay protocol (Materials and Methods). The data are presented as percentages of control (CTR; DMSO, 100%) and shown as means ± SDs (n = 5). The effects of 0.05 and 10 μM CH004 on hCBS (100 nM) without pre-incubation were defined as positive control (PC) and negative control (NC), respectively. (B) Inhibition of hCBS by CH004 as a function of PLP concentration with Cys (20 mM) together with Hcys (10 mM) as substrates (non-competitive inhibition constant αKi=15.2 ± 4.9 μM). […] The αKi or αKi’ values were calculated by using the non-linear fitting method for enzyme kinetics in GraphPad Prism 5. […] Dissociation constants for CH004 (KD) were calculated by using Biacore evaluation software (Materials and Methods).

hCSE = hCSE (Homo sapiens, UniProt P32929); experiment: H2S in HEK293T cells transiently expressing hCSE (AzMC probe); assay type: cell-based; conditions: 10 μM, 8 h
Chain of hCSE (P32929 whole entry): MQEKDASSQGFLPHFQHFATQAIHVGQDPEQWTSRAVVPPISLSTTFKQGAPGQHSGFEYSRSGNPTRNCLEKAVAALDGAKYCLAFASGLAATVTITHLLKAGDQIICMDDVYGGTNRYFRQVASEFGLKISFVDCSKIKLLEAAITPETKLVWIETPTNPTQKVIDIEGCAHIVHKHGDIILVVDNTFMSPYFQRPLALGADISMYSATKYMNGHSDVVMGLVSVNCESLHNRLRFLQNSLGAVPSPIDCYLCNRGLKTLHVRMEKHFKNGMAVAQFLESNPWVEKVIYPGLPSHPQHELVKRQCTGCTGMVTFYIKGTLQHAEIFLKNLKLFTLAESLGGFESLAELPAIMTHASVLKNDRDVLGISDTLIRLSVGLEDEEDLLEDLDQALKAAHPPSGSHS
Procedure: HEK293T cells were transiently transfected with empty vector (EV, i and ii), hCBS-FL (iii and iv) or hCSE (v and vi) plasmids, followed by incubation with DMSO (i–iii and v) or 10 μM CH004 (iv and vi) for 8 h before staining with 50 μM AzMC, a H2S-specific probe (“Materials and Methods” section). For larger fluorescent and bright-field images, please see Supplementary Figure 4. The expression levels of hCBS or hCSE in HEK293T cells after transient transfections were determined by western blotting using an anti-CBS antibody (3E1, 1:2000; Abnova) or anti-CSE antibody (1:500, GeneTex). The densities of protein bands for hCBS or hCSE in the blots were quantified with the ImageJ software (National Institutes of Health, Bethesda, MD, USA) and expressed as ratios of respective control (EV group). […] The fluorescent images of the H2S (blue) were accordingly quantified (“Materials and Methods” section) with ImageJ. […] A representative fluorescence image from three independent experiments is shown. […]
H2S levels in living cells were detected using a H2S-specific fluorescent probe according to a protocol described previously[31],[55]. […] After incubation with 50 μM AzMC at 37 °C for 30 min, the cells were washed 4 times with PBS, and the fluorescent images were recorded with excitation by 405 nm laser by using a A1Si (Nikon) confocal microscope. […]

Cn1nc(Cc2ccccc2)nc2c(=O)n(C)c(=O)nc1-2 [CH004, 3-benzyl-1,6-dimethylpyrimido[5,4-e][1,2,4]triazine-5,7(1H,6H)-dione]
Kd [1]: 600 ± 300 nM | effect on production of H2S (hCSE): did not interfere
